{"source": "paper PMC8878468", "about": "“Image-Based Annotation of Chemogenomic Libraries for Phenotypic Screening” (Molecules, 2022)", "key": {"U2OS cells [1]": {"tested_on": "U2OS cells", "conditions": "High-Via Extend protocol, cell line and unit inferred"}, "HCT116-FUCCI cells [2]": {"tested_on": "HCT116-FUCCI cells", "set-up": "method as in per compound as in column reference of Table S3", "conditions": "literature annotation in Table S3; ref per compound as in Table S3; cited from earlier work"}, "U2OS cells [3]": {"tested_on": "U2OS cells", "test": "Multiplex high-content protocol (nuclei gating, tubulin, mitochondrial mass, membrane permeability)", "format": "cell-based, human", "conditions": "U2OS", "method": "Using the CQ1 high-content confocal microscope (Yokogawa), cellular shape and fluorescence was measured before and 12 h as well as 24 h after compound treatment. All compounds were diluted in DMSO to a concentration of 10 mM.\nThe rather large spacing distance was used to create a robust readout, compensating potential plate variations and enabling automated screening without the use of autofocus. The overlap of the fluorescence emission spectra of the dyes was neglectable for all but the MitoTracker Red and Annexin V Alexa Fluor 680 (Supplementary Figure S9).\nAll images were analyzed using the CellPathfinder software (Yokogawa). Segmentation of cells was performed as described earlier. First, the cells are classified in Hoechst High Intensity Objects or Normal Intensity Objects (Supplementary Table S7). All normal gated cells are further classified in healthy, fragmented or pyknosed nuclei (Supplementary Table S7). The pyknosed cells are gated in mitotic or apoptotic cells using seven features for the cell body and five features for the cell nuclei according to their Annexin V staining intensity (Supplementary Table S7). All cells that were classified as including a healthy nucleus are further gated into three phenotypic classes. […] Growth rate was calculated against non-treated cells and cells treated with DMSO 0.1% [61]."}, "U2OS cells [4]": {"tested_on": "U2OS cells", "test": "cells", "conditions": "Homo sapiens"}, "HCT116-FUCCI cells [5]": {"tested_on": "HCT116-FUCCI cells", "test": "FUCCI cell cycle assay with nuclear gating", "format": "cell-based, human", "conditions": "for change of FUCCI nuclei population in comparison to DMSO / main nuclei color: 10 µM; for change of FUCCI nuclei population in comparison to DMSO: up to 70 h; for IC50: Homo sapiens, average and SEM of two independent experiments; for main nuclei color: Table S3", "method": "For generation of a stable cell line, including the florescent ubiquitination-base cell cycle indicator FUCCI, the plasmid-based transposon system Sleeping Beauty was used. Vector (pSBbi_Fucci) and the Transposase SB100X have been described previously. […] Two days after transfection, cells were selected over 10 days using puromycin (1 µg/mL) and cultivated afterwards for two more weeks in McCoys 5A plus L-Glutamine (Gibco) supplemented by 10% FBS (Gibco) and Penicillin/Streptomycin (Gibco).\nFluorescence and cellular shape were measured before and after compound treatment for 72 h every 12 h using the CQ1 high-content confocal microscope (Yokogawa). […]\nImage analysis was performed using the CellPathfinder software (Yokogawa). Segmentation of cells was performed as described earlier. First, the cells are classified in Hoechst High Intensity Objects or Normal Intensity Objects (Supplementary Table S7). All normal gated cells are further classified in healthy, fragmented or pyknosed nuclei (Supplementary Table S7). […] Total cell count was normalized against total cell count of cells treated with 0.1% DMSO."}, "FGFR": {"tested_on": "FGFR", "conditions": "cited from earlier work"}, "[6]": {"conditions": "source not stated; cited from earlier work"}, "[7]": {"conditions": "read-out: IC 50 14 h, Table S2, 14 h"}, "[8]": {"conditions": "read-out: IC 50 26 h, Table S2, 26 h"}, "[9]": {"conditions": "read-out: IC 50 42 h, Table S2, 42 h"}, "[10]": {"conditions": "read-out: IC 50 56 h, Table S2, 56 h"}}, "note": "Read-outs that look alike come from different tables or passages of the source.", "data": [{"smiles": "CCC(=O)N1CCN(c2ccc(-n3c(=O)ccc4cnc5ccc(-c6cnc7ccccc7c6)cc5c43)cc2C(F)(F)F)CC1", "note": "[torin]", "values": [{"measurement": "IC50", "setting": "U2OS cells [1]; [7]", "value": 800, "unit": "nM"}, {"measurement": "IC50", "setting": "U2OS cells [1]; [8]", "value": 800, "unit": "nM"}, {"measurement": "IC50", "setting": "U2OS cells [1]; [9]", "value": 700, "unit": "nM"}, {"measurement": "IC50", "setting": "U2OS cells [1]; [10]", "value": 700, "unit": "nM"}]}, {"smiles": "Cc1sc2c(c1C)C(c1ccc(Cl)cc1)=N[C@@H](CC(=O)OC(C)(C)C)c1nnc(C)n1-2", "note": "[JQ1]", "values": [{"measurement": "IC50", "setting": "U2OS cells [1]; [7]", "value": 9700, "unit": "nM"}, {"measurement": "IC50", "setting": "U2OS cells [1]; [8]", "value": 9000, "unit": "nM"}, {"measurement": "IC50", "setting": "U2OS cells [1]; [9]", "value": 13700, "unit": "nM"}, {"measurement": "IC50", "setting": "U2OS cells [1]; [10]", "value": 200, "unit": "nM"}]}, {"smiles": "CC[C@@]1(O)C(=O)OCc2c1cc1n(c2=O)Cc2cc3ccccc3nc2-1", "note": "[camptothecin]", "values": [{"measurement": "known cell cycle effect", "setting": "HCT116-FUCCI cells [2]", "value": "mitotic arrest"}, {"measurement": "Hoechst High Intensity Objects (Hoechst intensity compared to normal nuclei)", "setting": "U2OS cells [3]; 1 µM", "value": "more than 50%"}, {"measurement": "healthy nuclei (healthy cells)", "setting": "U2OS cells [3]; 10 µM, 24 h", "value": "less than 50%"}, {"measurement": "Hoechst High Intensity Objects", "setting": "U2OS cells [3]; 10 µM, after 24 h, in one of two biological replicates", "value": "> 30", "unit": "%"}, {"measurement": "IC50", "setting": "U2OS cells [4]; 14 h, read-out: IC 50 14 h", "value": 2600, "unit": "nM"}, {"measurement": "IC50", "setting": "U2OS cells [4]; 14 h, read-out: IC50, normalized healthy cell count", "value": 4700, "unit": "nM"}, {"measurement": "IC50", "setting": "U2OS cells [4]; 14 h, read-out: IC50, normalized healthy nuclear count", "value": 6100, "unit": "nM"}, {"measurement": "IC50", "setting": "U2OS cells [4]; 26 h, read-out: IC 50 26 h", "value": 2300, "unit": "nM"}, {"measurement": "IC50", "setting": "U2OS cells [4]; 28 h, read-out: IC50, normalized healthy cell count", "value": 1800, "unit": "nM"}, {"measurement": "IC50", "setting": "U2OS cells [4]; 28 h, read-out: IC50, normalized healthy nuclear count", "value": 1700, "unit": "nM"}, {"measurement": "IC50", "setting": "U2OS cells [4]; 42 h, read-out: IC 50 42 h", "value": 1500, "unit": "nM"}, {"measurement": "IC50", "setting": "U2OS cells [4]; 42 h, read-out: IC50, normalized healthy cell count", "value": 290, "unit": "nM"}, {"measurement": "IC50", "setting": "U2OS cells [4]; 42 h, read-out: IC50, normalized healthy nuclear count", "value": 438, "unit": "nM"}, {"measurement": "IC50", "setting": "U2OS cells [4]; 56 h, read-out: IC 50 56 h", "value": 1100, "unit": "nM"}, {"measurement": "IC50", "setting": "U2OS cells [4]; 56 h, read-out: IC50, normalized healthy cell count", "value": 50.9, "unit": "nM"}, {"measurement": "IC50", "setting": "U2OS cells [4]; 56 h, read-out: IC50, normalized healthy nuclear count", "value": 43.4, "unit": "nM"}, {"measurement": "change of FUCCI nuclei population in comparison to DMSO", "setting": "HCT116-FUCCI cells [5]", "value": "increase in green nuclei"}]}, {"smiles": "COc1cccc2c1C(=O)c1c(O)c3c(c(O)c1C2=O)C[C@@](O)(C(C)=O)C[C@@H]3O[C@H]1C[C@H](N)[C@H](O)[C@H](C)O1", "note": "[daunorubicin]", "values": [{"measurement": "known cell cycle effect", "setting": "HCT116-FUCCI cells [2]", "value": "breaks, cell cycle arrest"}, {"measurement": "healthy nuclei (healthy cells)", "setting": "U2OS cells [3]; 10 µM, 24 h", "value": "less than 50%"}, {"measurement": "change of FUCCI nuclei population in comparison to DMSO", "setting": "HCT116-FUCCI cells [5]", "value": "More yellow nuclei"}]}, {"smiles": "CNC(=O)c1nn(C)c2c1C(C)(C)Cc1cnc(Nc3ccc(N4CCN(C)CC4)cc3)nc1-2", "note": "[milciclib]", "values": [{"measurement": "known cell cycle effect", "setting": "HCT116-FUCCI cells [2]", "value": "G1 cell cy cle arrest"}, {"measurement": "increase in mitochondrial mass in comparison to DMSO", "setting": "U2OS cells [3]; 10 µM, 24 h, healthy nuclei only", "value": "over 60%"}, {"measurement": "IC50", "setting": "U2OS cells [4]; 14 h, read-out: IC 50 14 h", "value": 2100, "unit": "nM"}, {"measurement": "IC50", "setting": "U2OS cells [4]; 26 h, read-out: IC 50 26 h", "value": 800, "unit": "nM"}, {"measurement": "IC50", "setting": "U2OS cells [4]; 42 h, read-out: IC 50 42 h", "value": 600, "unit": "nM"}, {"measurement": "IC50", "setting": "U2OS cells [4]; 56 h, read-out: IC 50 56 h", "value": 500, "unit": "nM"}, {"measurement": "cell cycle population distribution of healthy gated nuclei", "setting": "HCT116-FUCCI cells [5]; 1 µM, after 18 h, versus DMSO", "value": "higher population of ‘red’ nuclei"}, {"measurement": "IC50", "setting": "HCT116-FUCCI cells [5]; 18h, read-out: IC50(18h), normalized healthy cell count", "value": "5990 ± 260", "unit": "nM"}, {"measurement": "IC50", "setting": "HCT116-FUCCI cells [5]; 32h, read-out: IC50(32h), normalized healthy cell count", "value": "1990 ± 350", "unit": "nM"}, {"measurement": "IC50", "setting": "HCT116-FUCCI cells [5]; 45h, read-out: IC50(45h), normalized healthy cell count", "value": "850 ± 90", "unit": "nM"}, {"measurement": "IC50", "setting": "HCT116-FUCCI cells [5]; 59h, read-out: IC50(59h), normalized healthy cell count", "value": "570 ± 50", "unit": "nM"}]}, {"smiles": "O=c1cc(-c2ccccc2)oc2c1ccc1ccccc12", "note": "[α-naphthoflavone]", "values": [{"measurement": "known cell cycle effect", "setting": "HCT116-FUCCI cells [2]", "value": "G1 cell cy cle arrest"}, {"measurement": "change of FUCCI nuclei population in comparison to DMSO", "setting": "HCT116-FUCCI cells [5]", "value": "increase in red nuclei"}]}, {"smiles": "CN1CCN(C(=O)C(C)(C)c2ccc(C(=O)Nc3cn4cc(-c5ccncc5)ccc4n3)cc2)CC1", "note": "[T3-CLK]", "values": [{"measurement": "known cell cycle effect", "setting": "HCT116-FUCCI cells [2]", "value": "G2/M cell cycle arrest"}, {"measurement": "main nuclei color", "setting": "HCT116-FUCCI cells [5]", "value": "green"}]}, {"smiles": "N#Cc1c2nc3ccccc3nc2n2ccc(NC(=O)c3cccs3)cc12", "note": "[HI-TOPK-032]", "values": [{"measurement": "known cell cycle effect", "setting": "HCT116-FUCCI cells [2]", "value": "during mitosis, G1 cell"}, {"measurement": "main nuclei color", "setting": "HCT116-FUCCI cells [5]", "value": "yellow"}, {"measurement": "change of FUCCI nuclei population in comparison to DMSO", "setting": "HCT116-FUCCI cells [5]", "value": "increased number of cells with yellow nuclei"}]}, {"smiles": "CCN(CC)CCCCNc1ncc2cc(-c3cc(OC)cc(OC)c3)c(NC(=O)NC(C)(C)C)nc2n1", "note": "[PD173074]", "values": [{"measurement": "cellular activity", "setting": "FGFR", "value": "less than 25 nM"}, {"measurement": "Hoechst High Intensity Objects (Hoechst intensity compared to normal nuclei)", "setting": "U2OS cells [3]; 1 µM", "value": "more than 50%"}, {"measurement": "compound precipitation in assay", "setting": "U2OS cells [3]; 1 µM", "value": "precipitated"}, {"measurement": "logP", "setting": "[6]", "value": 4.7}]}, {"smiles": "COc1cccc2c1C(=O)c1c(O)c3c(c(O)c1C2=O)C[C@@](O)(C(=O)CO)C[C@@H]3O[C@H]1C[C@H](N)[C@H](O)[C@H](C)O1", "note": "[doxorubicin]", "values": [{"measurement": "known cell cycle effect", "setting": "HCT116-FUCCI cells [2]", "value": "G0/G1 cell cycle arrest"}, {"measurement": "change of FUCCI nuclei population in comparison to DMSO", "setting": "HCT116-FUCCI cells [5]", "value": "More yellow nuclei"}]}, {"smiles": "CC(=O)O[C@H]1C(=O)[C@@]2(C)[C@H]([C@H](OC(=O)c3ccccc3)[C@]3(O)C[C@H](OC(=O)[C@H](O)[C@@H](NC(=O)c4ccccc4)c4ccccc4)C(C)=C1C3(C)C)[C@]1(OC(C)=O)CO[C@@H]1C[C@@H]2O", "note": "[paclitaxel]", "values": [{"measurement": "known cell cycle effect", "setting": "HCT116-FUCCI cells [2]", "value": "concentration-dependent"}, {"measurement": "IC50", "setting": "U2OS cells [4]; 14 h, read-out: IC 50 14 h", "value": "> 2000", "unit": "nM"}, {"measurement": "IC50", "setting": "U2OS cells [4]; 26 h, read-out: IC 50 26 h", "value": 100, "unit": "nM"}, {"measurement": "IC50", "setting": "U2OS cells [4]; 42 h, read-out: IC 50 42 h", "value": 60, "unit": "nM"}, {"measurement": "IC50", "setting": "U2OS cells [4]; 56 h, read-out: IC 50 56 h", "value": 50, "unit": "nM"}, {"measurement": "change of FUCCI nuclei population in comparison to DMSO", "setting": "HCT116-FUCCI cells [5]", "value": "increase in red nuclei"}]}]}
